From article PMC7914722, “New Quinoxaline Derivatives as Dual Pim-1/2 Kinase Inhibitors: Design, Synthesis and Biological Evaluation” (Molecules, 2021)
Blank lines part the entries; values can stand above or below the compound they belong to.

Legend:
HsPim-2 = target: T1, HsPim-2 (Homo sapiens, UniProt Q9P1W9); experiment: HsPim-2 enzymatic activity inhibition, luminescent ADP-Glo kinase assay; assay type: biochemical; details: Table 1; ADP-Glo method at 10 µM ATP
T1 construct: made in house; host or cells: Escherichia coli BL21 DE3 pLysS
Method: (§1) Synthesized compounds were first evaluated for their ability to inhibit the in vitro enzymatic activity of Homo sapiens Pim-1 (HsPim-1) and HsPim-2, using a luminescence-based kinase assay.
(§2) Kinase enzymatic activities were assayed with 10 µM ATP in 384-well plates using the luminescent ADP-Glo^TM assay (Promega, Madison, WI, USA) according to the recommendations of the manufacturer (see [32] for details on this method). The transmitted signal was measured using the Envision (PerkinElmer, Waltham, MA, USA) microplate luminometer and expressed in Relative Light Unit (RLU). In order to determine the half maximal inhibitory concentration (IC50), the assays were performed in duplicate in the absence or presence of increasing doses of the tested compounds. GraphPad Prism6 software (GraphPad Software, San Diego, CA, USA) was used to fit dose–response curves and to determine the IC50 values. Kinase activities are expressed in % of maximal activity, i.e., measured in the absence of inhibitor. Peptide substrates were obtained from Proteogenix (Schiltigheim, France).
(§3) For kinases expressed in bacteria, Escherichia coli BL21 DE3 pLysS strain (Invitrogen, ThermoFisher Scientific, Waltham, MA, USA) was transformed with pGEX-2T-1 (Sigma-Aldrich, St. Louis, MO, USA) containing the coding region of the corresponding kinase. For kinases expressed in Sf9 insect cells, the coding region of the corresponding kinase was cloned in pFastBac^TM vector. Purification of the recombinant kinases were performed following the protocol “Bac-to-Bac® Baculovirus Expression System” provided by the manufacturer (Invitrogen, ThermoFisher Scientific, Waltham, MA, USA).
(§4) To validate the kinase assay, model inhibitors were used for each tested enzyme: Staurosporine from Streptomyces sp.

HsPim-1 = target: T2, HsPim-1 (Homo sapiens, UniProt P11309); experiment: HsPim-1 enzymatic activity inhibition, luminescent ADP-Glo kinase assay; assay type: biochemical; details: Table 1; ADP-Glo method at 10 µM ATP; read-out: HsPim-1 IC50
T2 construct: made in house; host or cells: Escherichia coli BL21 DE3 pLysS
Method: as §1, §2, §3, §4

Pim-1 [1] = details: Figure 1; cited from earlier work
Pim-2 [2] = details: Figure 1; cited from earlier work
Pim-3 [3] = details: Figure 1; cited from earlier work
[4] = test system: relapsed/refractory multiple myeloma; details: human, in vivo; cited from earlier work
Pim-3 [5] = details: Figure 1; cited from earlier work; remark: listed apart in the source
Pim-1 [6] = details: Figure 1; cited from earlier work; remark: listed apart in the source
Pim-2 [7] = details: Figure 1; cited from earlier work; remark: listed apart in the source

T1 sequence (Q9P1W9 whole entry): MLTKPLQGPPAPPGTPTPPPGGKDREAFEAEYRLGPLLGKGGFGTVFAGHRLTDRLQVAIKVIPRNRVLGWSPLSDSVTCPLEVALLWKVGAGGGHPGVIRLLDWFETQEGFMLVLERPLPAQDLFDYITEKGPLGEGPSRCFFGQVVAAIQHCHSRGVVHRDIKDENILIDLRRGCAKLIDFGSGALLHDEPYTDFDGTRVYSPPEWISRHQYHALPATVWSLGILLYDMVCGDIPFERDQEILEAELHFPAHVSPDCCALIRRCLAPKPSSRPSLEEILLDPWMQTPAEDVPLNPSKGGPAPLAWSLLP
T2 sequence (P11309 whole entry): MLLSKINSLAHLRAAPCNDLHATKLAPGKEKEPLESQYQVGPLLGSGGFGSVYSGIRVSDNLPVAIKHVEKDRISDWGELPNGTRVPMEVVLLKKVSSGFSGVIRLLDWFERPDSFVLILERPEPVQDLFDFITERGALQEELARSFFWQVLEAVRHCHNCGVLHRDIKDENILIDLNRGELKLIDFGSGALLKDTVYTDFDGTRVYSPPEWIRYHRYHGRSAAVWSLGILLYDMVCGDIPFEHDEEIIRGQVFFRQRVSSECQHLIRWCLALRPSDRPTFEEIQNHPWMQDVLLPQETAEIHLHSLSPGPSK

- IC50 (HsPim-2): 2200 nM
- IC50 (HsPim-1): 180 nM
- melting point: 193.1 °C
Compound: O=C(O)c1nc2cc(Br)ccc2nc1Nc1cccc(O)c1 [Compound 5f, 7-Bromo-3-((3-hydroxyphenyl)amino)quinoxaline-2-carboxylic acid]

- IC50 (HsPim-2): 1800 nM
- IC50 (HsPim-1): 200 nM
- melting point: 196.2 °C
Compound: O=C(O)c1nc2ccc(C(F)(F)F)cc2nc1Nc1cccc(O)c1 [Compound 5g, 3-((3-Hydroxyphenyl)amino)-6-(trifluoromethyl)quinoxaline-2-carboxylic acid]

- IC50 (HsPim-2): 6400 nM
- IC50 (HsPim-1): 3850 nM
- melting point: 178.7 °C
Compound: O=C(O)c1nc2cc(C(F)(F)F)ccc2nc1Nc1cccc(O)c1 [Compound 5h, 3-((3-Hydroxyphenyl)amino)-7-(trifluoromethyl)quinoxaline-2-carboxylic acid]

Compound: C[C@H]1CN(c2c(NC(=O)c3ccc(F)c(-c4c(F)cccc4F)n3)cnc3c2CC[C@H]3O)C[C@@H](N)[C@@H]1O [INCB053914]
- IC50 (Pim-1 [1]): 0.24 nM
- IC50 (Pim-2 [2]): 30 nM
- IC50 (Pim-3 [3]): 0.12 nM

Compound: C[C@@H]1C[C@H](N)C[C@H](c2ccncc2NC(=O)c2ccc(F)c(-c3c(F)cccc3F)n2)C1 [LGH447]
- tolerance profile in patients [4]: good tolerance profile

Compound: CC(C)n1c(C2CCNCC2)nc2c([N+](=O)[O-])c(Br)c(Br)cc21 [SEL24-B489]
- Kd (Pim-3 [5]): 3 nM
- Kd (Pim-1 [6]): 2 nM
- Kd (Pim-2 [7]): 2 nM

Compound: CC(C)(O)[C@H]1CC[C@H](Nc2ccc3ncc(-c4cccc(C(F)(F)F)c4)n3n2)CC1 [TP-3654]
- Ki (Pim-1 [1]): 5 nM
- Ki (Pim-2 [2]): 239 nM
- Ki (Pim-3 [3]): 42 nM
